The values below come from ChEMBL document CHEMBL3994582, “A2B adenosine receptor antagonists: Design, synthesis and biological evaluation of novel xanthine derivatives” (Eur J Med Chem, 2017).

The target in the first data set is T1, Adenosine receptor A2b (Homo sapiens, UniProt P29275).
T1 sequence (P29275 whole entry): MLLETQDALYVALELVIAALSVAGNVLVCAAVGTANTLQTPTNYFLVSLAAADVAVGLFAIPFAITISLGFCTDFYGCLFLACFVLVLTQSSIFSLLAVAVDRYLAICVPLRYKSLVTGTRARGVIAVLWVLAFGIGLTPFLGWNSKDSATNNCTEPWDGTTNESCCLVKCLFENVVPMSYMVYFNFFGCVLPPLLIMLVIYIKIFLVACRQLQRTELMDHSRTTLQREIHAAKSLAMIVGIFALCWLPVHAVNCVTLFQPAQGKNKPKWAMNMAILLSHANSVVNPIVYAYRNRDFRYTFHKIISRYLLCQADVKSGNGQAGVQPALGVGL
Description: Displacement of [3H]-MRS-1754 from human adenosine receptor A2b expressed in HEK293 cell membranes after 90 mins by liquid scintillation counting method.
Details: not given
A general note: In a radioligand displacement assay an active substance lowers the binding of a labelled ligand.
The term Ki denotes a dissociation constant, usually derived from enzyme kinetics or from competition with a known ligand. Higher therefore signals weaker binding. `CCCn1c(=O)c2[nH]c(-c3ccc(OCC4CC(=O)N(c5cccc(F)c5)C4)nc3)nc2n(CCC)c1=O` (centres undefined): the Ki is 0.0046 µM.
On the same count and under the same terms, then `CCCn1c(=O)c2[nH]c(-c3cnn(CC(=O)N4CCN(c5ccc(F)cc5F)CC4)c3)nc2n(CCC)c1=O`, with 0.0107 µM; and `CCCn1c(=O)c2[nH]c(-c3cnn(CC4CC(=O)N(c5cccc(C)c5)C4)c3)nc2n(CCC)c1=O` (centres undefined), with 0.0107 µM; and `CCCn1c(=O)c2[nH]c(-c3cnn(CC4CCN(c5ccc(OC(F)(F)F)cc5)C4)c3)nc2n(CCC)c1=O` (centres undefined), with 0.014 µM.
For `CCCn1c(=O)c2[nH]c(-c3cnn(CC4CC(=O)N(c5ccc(C#N)cc5)C4)c3)nc2n(CCC)c1=O` (centres undefined), affinity was put at a Ki of 0.023 µM.

For the next data set, the target named is T2, Adenosine receptor A1 (Homo sapiens) (UniProt P30542).
T2 sequence (whole entry): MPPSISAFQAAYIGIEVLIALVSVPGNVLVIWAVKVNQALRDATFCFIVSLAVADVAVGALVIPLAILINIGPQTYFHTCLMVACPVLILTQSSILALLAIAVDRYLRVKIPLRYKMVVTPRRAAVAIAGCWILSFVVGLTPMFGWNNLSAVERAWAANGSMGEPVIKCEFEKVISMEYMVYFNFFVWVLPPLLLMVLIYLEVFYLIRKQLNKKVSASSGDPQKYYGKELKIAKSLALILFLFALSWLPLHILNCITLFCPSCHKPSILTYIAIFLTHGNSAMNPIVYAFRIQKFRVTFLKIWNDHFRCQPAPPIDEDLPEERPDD
Briefly: Displacement of [3H]DPCPX from human adenosine receptor A1 expressed in HEK293 cell membranes at 0.1 uM after 90 mins by liquid scintillation counting method relative to control.
Details: not given
One may read the inhibition as the percentage by which the read-out fell short of the control. A high value points to a response far below the control. Compound `CCCn1c(=O)c2[nH]c(-c3ccc(OCC4CC(=O)N(c5cccc(F)c5)C4)nc3)nc2n(CCC)c1=O` (centres undefined) registered an inhibition of 17%.
Consider `CCCn1c(=O)c2[nH]c(-c3cnn(CC(=O)N4CCN(c5ccc(F)cc5F)CC4)c3)nc2n(CCC)c1=O`, for which the inhibition was 45%.
The compound `CCCn1c(=O)c2[nH]c(-c3cnn(CC4CC(=O)N(c5cccc(C)c5)C4)c3)nc2n(CCC)c1=O` (centres undefined) had an inhibition of 29%.
Take `CCCn1c(=O)c2[nH]c(-c3cnn(CC4CCN(c5ccc(OC(F)(F)F)cc5)C4)c3)nc2n(CCC)c1=O` (centres undefined): the inhibition was determined as 23%.
In the case of `CCCn1c(=O)c2[nH]c(-c3cnn(CC4CC(=O)N(c5ccc(C#N)cc5)C4)c3)nc2n(CCC)c1=O` (centres undefined), the inhibition was 18%.

In another data set the target is Adenosine receptor A2a (Homo sapiens, UniProt P29274). Briefly: Displacement of [3H]-ZM-241385 from human adenosine receptor A2a expressed in HEK293 cell membranes at 0.1 uM after 90 mins by liquid scintillation counting method relative to control.
Sequence of Adenosine receptor A2a (P29274 whole entry): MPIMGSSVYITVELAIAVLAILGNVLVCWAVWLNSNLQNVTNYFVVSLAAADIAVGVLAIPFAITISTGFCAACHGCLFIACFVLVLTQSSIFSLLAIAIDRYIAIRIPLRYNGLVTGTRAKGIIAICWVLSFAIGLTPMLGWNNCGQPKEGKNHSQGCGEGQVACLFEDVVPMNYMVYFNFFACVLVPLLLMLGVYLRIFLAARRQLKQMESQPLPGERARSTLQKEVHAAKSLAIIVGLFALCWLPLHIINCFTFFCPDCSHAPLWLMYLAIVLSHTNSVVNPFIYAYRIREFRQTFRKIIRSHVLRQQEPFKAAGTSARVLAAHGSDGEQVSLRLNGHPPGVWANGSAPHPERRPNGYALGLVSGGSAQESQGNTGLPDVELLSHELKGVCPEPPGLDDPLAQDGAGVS
Details: not given
As to `CCCn1c(=O)c2[nH]c(-c3ccc(OCC4CC(=O)N(c5cccc(F)c5)C4)nc3)nc2n(CCC)c1=O` (centres undefined), the inhibition was 85%.
`CCCn1c(=O)c2[nH]c(-c3cnn(CC(=O)N4CCN(c5ccc(F)cc5F)CC4)c3)nc2n(CCC)c1=O` returned an inhibition of 56%.
`CCCn1c(=O)c2[nH]c(-c3cnn(CC4CC(=O)N(c5cccc(C)c5)C4)c3)nc2n(CCC)c1=O` (centres undefined) yielded an inhibition of 0%.
The compound `CCCn1c(=O)c2[nH]c(-c3cnn(CC4CCN(c5ccc(OC(F)(F)F)cc5)C4)c3)nc2n(CCC)c1=O` (centres undefined) displayed an inhibition of 26%.
The compound `CCCn1c(=O)c2[nH]c(-c3cnn(CC4CC(=O)N(c5ccc(C#N)cc5)C4)c3)nc2n(CCC)c1=O` (centres undefined) displayed an inhibition of 20%.

The target in another data set is T3, Adenosine receptor A3 (Homo sapiens) (UniProt P0DMS8).
T3 sequence (whole entry): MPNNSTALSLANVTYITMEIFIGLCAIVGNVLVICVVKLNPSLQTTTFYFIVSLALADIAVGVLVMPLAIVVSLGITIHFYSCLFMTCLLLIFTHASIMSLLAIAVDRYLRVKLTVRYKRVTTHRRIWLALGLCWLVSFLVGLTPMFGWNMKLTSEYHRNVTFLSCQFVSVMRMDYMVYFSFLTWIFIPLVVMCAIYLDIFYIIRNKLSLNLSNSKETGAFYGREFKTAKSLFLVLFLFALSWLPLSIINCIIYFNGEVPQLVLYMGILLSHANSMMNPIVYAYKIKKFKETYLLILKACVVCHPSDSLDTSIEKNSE
Description: Displacement of [3H]-HEM-ADO from human adenosine receptor A3 expressed in HEK293 cell membranes at 1 uM after 90 mins by liquid scintillation counting method relative to control.
Details: not given
With `CCCn1c(=O)c2[nH]c(-c3ccc(OCC4CC(=O)N(c5cccc(F)c5)C4)nc3)nc2n(CCC)c1=O` (centres undefined), the inhibition came to 53%.
`CCCn1c(=O)c2[nH]c(-c3cnn(CC(=O)N4CCN(c5ccc(F)cc5F)CC4)c3)nc2n(CCC)c1=O`: the inhibition is 0%.
With `CCCn1c(=O)c2[nH]c(-c3cnn(CC4CC(=O)N(c5cccc(C)c5)C4)c3)nc2n(CCC)c1=O` (centres undefined), the inhibition amounted to 0%.
`CCCn1c(=O)c2[nH]c(-c3cnn(CC4CCN(c5ccc(OC(F)(F)F)cc5)C4)c3)nc2n(CCC)c1=O` (centres undefined) came in with an inhibition of 2%.
`CCCn1c(=O)c2[nH]c(-c3cnn(CC4CC(=O)N(c5ccc(C#N)cc5)C4)c3)nc2n(CCC)c1=O` (centres undefined) yielded an inhibition of 2%.

Test system in a further data set: not listed separately
Briefly: Solubility of the compound. It counts as physicochemical.
Details: not given
Turning to `CCCn1c(=O)c2[nH]c(-c3ccc(OCC4CC(=O)N(c5cccc(F)c5)C4)nc3)nc2n(CCC)c1=O` (centres undefined), the solubility result is listed as “Insoluble”.

In another data set the test system is Liver. Description: Metabolic stability in mouse liver microsomes assessed as metabolic rate per mg protein preincubated for 5 mins followed by NADPH addition measured up to 30 mins by LC-MS/MS analysis. It counts as ADME, microsome. The settings on record: 0.5 h.
`CCCn1c(=O)c2[nH]c(-c3cnn(CC(=O)N4CCN(c5ccc(F)cc5F)CC4)c3)nc2n(CCC)c1=O`: the Drug metabolism worked out at 0.23 nmol/min/mg.
With `CCCn1c(=O)c2[nH]c(-c3cnn(CC4CC(=O)N(c5cccc(C)c5)C4)c3)nc2n(CCC)c1=O` (centres undefined), the Drug metabolism is 0.46 nmol/min/mg.
The same measure, in the same setting: the same measure for `CCCn1c(=O)c2[nH]c(-c3cnn(CC4CCN(c5ccc(OC(F)(F)F)cc5)C4)c3)nc2n(CCC)c1=O` (centres undefined): 0.15 nmol/min/mg; for `CCCn1c(=O)c2[nH]c(-c3cnn(CC4CC(=O)N(c5ccc(C#N)cc5)C4)c3)nc2n(CCC)c1=O` (centres undefined): 0 nmol/min/mg.

Another data set concerns Liver. Description: Metabolic stability in human liver microsomes assessed as metabolic rate per mg protein preincubated for 5 mins followed by NADPH addition measured up to 30 mins by LC-MS/MS analysis. It counts as ADME, microsome. The settings on record: 0.5 h. For orientation: Liver microsomes are vesicles of endoplasmic reticulum, rich in cytochrome P450 enzymes.
For the compound `CCCn1c(=O)c2[nH]c(-c3cnn(CC(=O)N4CCN(c5ccc(F)cc5F)CC4)c3)nc2n(CCC)c1=O`, the Drug metabolism came out at 0.11 nmol/min/mg.
Consider `CCCn1c(=O)c2[nH]c(-c3cnn(CC4CC(=O)N(c5cccc(C)c5)C4)c3)nc2n(CCC)c1=O` (centres undefined), for which the Drug metabolism is 0.18 nmol/min/mg.
As to `CCCn1c(=O)c2[nH]c(-c3cnn(CC4CCN(c5ccc(OC(F)(F)F)cc5)C4)c3)nc2n(CCC)c1=O` (centres undefined), the Drug metabolism was 0.16 nmol/min/mg.
In the case of `CCCn1c(=O)c2[nH]c(-c3cnn(CC4CC(=O)N(c5ccc(C#N)cc5)C4)c3)nc2n(CCC)c1=O` (centres undefined), the Drug metabolism was 0.15 nmol/min/mg.
